Experimental data published in patent CN110478361A, “一种安全性高的灯盏花乙素药物组合物及其制备方法” (KUNMING LONGJIN PHARMACEUTICAL CO Ltd, priority 2018, dated 2019).

What was measured:
[1] = system: rat dementia caused by kainic acid (海人藻酸所致大鼠痴呆); conditions: male Wistar rats; cited from earlier work
[2] = system: rat dementia caused by β-amyloid (β-淀粉样蛋白致大鼠痴呆); conditions: male Wistar rats; cited from earlier work
[3] = system: reflux oesophagitis and gastritis (反流性食道炎以及抗胃炎); conditions: cited from earlier work
[4] = Clarity test (compared with yellow-green No. 6 standard colour solution, Chinese Pharmacopoeia 2015, general chapter 0901, method 1); type: physicochemical; conditions: 0.02 mg per mL in 1% sodium hydrogencarbonate solution, inspected within 5 minutes
[5] = Single-dose intravenous toxicity in SD rats; type: in vivo, rat; conditions: in vivo, iv; SD rat, single i.v., injectable breviscapine made from Example 1; 500, 750, 1000 mg/kg; 14 days observation; read-out: maximum tolerated dose (MTD)
[6] = system: SD rats (SD大鼠); test: Single-dose intravenous toxicity in SD rats; type: in vivo, rat; conditions: worked out from rat single i.v. MTD
[7] = Repeated-dose intravenous toxicity in SD rats, four weeks with four-week recovery; type: in vivo, rat; conditions: in vivo, iv; SD rat, i.v. once daily, 28 days, recovery 29 days; 200, 400, 600 mg/kg; injectable breviscapine made from Example 1; read-out: no observed adverse effect level (NOAEL)
[8] = system: SD rats (SD大鼠); test: as above; type: in vivo, rat; conditions: worked out from rat 28-day i.v. NOAEL
[9] = Single-dose intravenous toxicity in Beagle dogs; type: in vivo, dog; conditions: in vivo, iv; Beagle dog, single i.v., injectable breviscapine made from Example 1; 200, 400 mg/kg; 14 days observation; read-out: maximum tolerated dose (MTD)
[10] = system: Beagle dogs (Beagle犬); test: Single-dose intravenous toxicity in Beagle dogs; type: in vivo, dog; conditions: worked out from dog single i.v. MTD
[11] = Repeated-dose intravenous toxicity in Beagle dogs, four weeks with four-week recovery; type: in vivo, dog; conditions: in vivo, iv; Beagle dog, i.v. once daily, 28 days, recovery 28 days; 25, 50, 100 mg/kg; injectable breviscapine made from Example 1; read-out: no observed adverse effect level (NOAEL)
[12] = system: Beagle dogs (Beagle犬); test: as above; type: in vivo, dog; conditions: worked out from dog 28-day i.v. NOAEL
[13] = Single-dose oral gavage toxicity in SD rats; type: in vivo, rat; conditions: in vivo; SD rat, single oral gavage, 5000 mg/kg; 14 days observation; read-out: maximum administered dose
[14] = system: SD rats (SD大鼠); test: Single-dose oral gavage toxicity in SD rats; type: in vivo, rat; conditions: worked out from rat single oral dose
[15] = in air; cited from earlier work
[16] = aglycone and active metabolite of scutellarin, compared with scutellarin; cited from earlier work
[17] = compared with apigenin and omeprazole

O=C(O)[C@H]1O[C@@H](Oc2cc(O)c3c(=O)cc(-c4ccc(O)cc4)oc3c2)[C@H](O)[C@@H](O)[C@@H]1O [5,4’-二羟基黄酮-7-O-β-D-葡萄糖醛酸]
effect on pathological changes of brain tissue [1]: 有一定改善作用
effect on pathological damage of cerebral cortex and hippocampus [2]: 可减轻β-淀粉样蛋白所致大鼠脑皮层及海马的病理损害
therapeutic effect on dementia [2]: 有一定的治疗作用
anti-reflux-oesophagitis and anti-gastritis effect [3, 17]: 比芹菜素和奥美拉唑更有效
reduction of the extent of gastric lesions [3, 17]: 比芹菜素和奥美拉唑更能有效的减小胃损伤范围
MOA content produced by induced reflux oesophagitis ([3]; mouse, in vivo): 减少由诱导反流性食管炎而产生的MOA的含量
antioxidant activity ([3]; mouse, in vivo): 有抗氧化活性
glutathione (GSH) produced in acute oesophagitis ([3]; mouse, in vivo): 清除急性食管炎产生的谷胱甘肽(GSH)

O=C(O)[C@H]1O[C@@H](Oc2cc3oc(-c4ccc(O)cc4)cc(=O)c3c(O)c2O)[C@H](O)[C@@H](O)[C@@H]1O [实施例1]
clarity test conclusion [4]: 符合规定
MTD at 336 h [5]: 750 mg/kg
equivalent human daily intake of the MTD [6]: 7500 mg
NOAEL at 672 h [7]: 200 mg/kg
equivalent human daily intake of the NOAEL [8]: 2000 mg
MTD at 336 h [9]: 200 mg/kg
equivalent human daily intake of the MTD [10]: 6666 mg
NOAEL at 672 h [11]: 25 mg/kg
equivalent human daily intake of the NOAEL [12]: 833.3 mg

O=C(O)[C@H]1O[C@@H](Oc2cc3oc(-c4ccc(O)cc4)cc(=O)c3c(O)c2O)[C@H](O)[C@@H](O)[C@@H]1O [实施例2]
MTD at 336 h [13]: 5000 mg/kg
equivalent human daily intake of the maximum administered dose [14]: 50 g

O=c1cc(-c2ccc(O)cc2)oc2cc(O)c(O)c(O)c12 [野黄芩素]
stability [15]: 在空气中易氧化变为醌类衍生物
related biological activity [16]: 更强相关生物活性
